The subject of test [1] is NKT cells. The experiment in a line: Expansion of NKT cells in culture of peripheral blood lymphocytes (PBL), flow cytometry on day 7. Format: cell-based, human. The note with it: for percentage of NKT cells in the CD3+ population: PBL of two healthy donors, 10 ng/ml, 100 ng/ml or 1 μg/ml, rhIL-2, day 7 (FIG. 1). On the procedure: PBLs were derived from two healthy donors and grown in RPMI cell culture media with 5% AB serum. Cells were plated on 12-well plates at 2×10^6 PBL/well/2 ml. Wells were treated with negative controls (0.05% Tween20 and 1% DMSO in PBS or 0.05% Tween20 and 10% DMSO in PBS) or the test adjuvants (αGalCer, PBS-20, PBS-25, or PBS-57) at a final concentration of 10 ng/ml, 100 ng/ml or 1 μg/ml. The chemical structures for control compounds αGalCer, PBS-20 and PBS25 are shown below:
All cultures were supplemented with recombinant human IL2 (rhIL-2) to obtain final concentration of 100 UI/ml by day 1. All cells were cultured for 10 days at 37° C. under 5% CO2. On day 7, half the culture medium (1 ml) was removed for NKT analysis. Percentage of NKT cells in the CD3+ population was detected by flow cytometry using fluorescently labeled CD1 tetramers or fluorescently labeled antibodies (anti-CD3, anti-Vβ11, and anti NKT). The NKT population was identified by flow cytometry as the Vβ11+, Tetramer+ and TCRαβ+ population. NKT cell percentage was calculated in each sample by subtracting the Vβ11+ PBS -57-tetramer+ TCRαβ+ from the Vβ11+ empty-tetramer+TCRαβ+.
Peripheral blood lymphocytes were derived from two healthy donors and cultured in RPMI with 5% AB serum. Cells are plated in a 12-well plate with 2×10^6 cells per well per 2 ml media. One well received carrier (0.05% Tween20 and 1% DMSO in PBS) as a negative control, and test wells received αGalCer, PBS-25, PBS-57, or PBS-83 at final concentrations of 1 ng/ml, 10 ng/ml and 100 ng/ml. The structure of PBS-83 is shown below:
All cultures were supplemented with rhIL-2 to obtain a final concentration of 100 UI/ml by day 1, and cultured for 7 days at 37° C. under 5% CO2 conditions. At day 7, the percentage NKT cells was detected by flow cytometry.

Test [2] concerns NKT cells. Nature of the test: Increase in NKT cells (day 7 / day 0) in PBL/PBMC cultures from healthy donors. It is filed as cell-based. The note with it: PBL cultures from human volunteers (FIG. 3). The procedure: NKT staining was performed on a panel of fourteen healthy donor peripheral blood lymphocytes (PBL) or peripheral blood […] (PBMC) samples. PBLs were isolated from 12 subjects, and PBMCs were isolated from 2 subjects. Each isolated cell sample was split into two samples. The first sample from each donor was stained with 10 μl anti-Vβ11 FITC (Beckman Coulter), 10 μl anti-TCRαβ-PC5 (Beckman Coulter), and 2 μl PE-labeled PBS-57-CD1d-tetramer. The second sample from each donor was stained with 10 μl Vβ11, 10 μl anti-TCRαβ-FITC, and 2 μl PE-labeled empty-CD1d-tetramer.
To determine a percentage increase in NKT cells, the number of NKT cells on day 7 was divided by the number of NKT cells on day 0.

Test [3] has as its system TCRαβ cells and NKT cells in the spleen. The experiment in a line: TCRαβ and NKT cell populations in the spleen of mice 24 hours after intravenous administration. It is filed as in vivo, C57B1/6J mice. To be noted: 0.97 μg αGalCer or 1.3 μg PBS57, 24 hours; for percentage of TCRαβ cells in the spleen: compared with PBS and carrier control (FIG. 4A); for percentage of NKT cells within the TCRαβ population in the spleen: relative to control (FIG. 4B). The procedure: (§1) To test for adjuvant activity of PBS57 in vivo, mice were injected with test compounds and assayed for cell activation and expansion at 24 hours. Four groups of five C57B1/6J mice were each intravenously administered phosphate buffered saline (PBS) with carrier (DMSO alone), 0.97 μg of αGalCer, 1.3 μg of PBS57, or 0.97 μg of PBS83 in a total of 100 μl PBS. 24 hours after administration of the test compound, the mice were sacrificed and blood samples and splenocytes were isolated by standard methods. Percentage of NKT cells in the spleen was evaluated by flow cytometry with staining using anti-TCRαβ-FITC and PE-labeled CD1d-tetramer loaded with PBS-57 (PBS57-tetramer) or without lipid (empty-tetramer). […] The percentage of NKT cells was determined by subtracting the percentage of PBS57-tetramer+ cells from the percentage of empty-tetramer+ cells in the TCRαβ population.

Test [4] deals with CD11c+CD8α− and CD11c+CD8α+ dendritic cells. The experiment in a line: Dendritic cell subsets and maturation (CD40, CD80, CD86) in splenocytes of mice 24 hours after intravenous administration. Format: in vivo, C57B1/6J mice. To be noted: for decrease of both subsets of DCs (CD11c+CD8α− and CD11c+CD8α+) compared to the control: splenocytes; for percentage of CD40+, CD80+ and CD86+ expressing cells in both the CD11c+CD8α− and CD11c+CD8α+ populations: splenocytes (FIGS. 5A-5F). On the procedure:
as §1
Dendritic cells (DCs) were detected in the splenocytes by flow cytometry by staining with anti-CD11c R-PE (BD Pharmingen) and anti-CD8α FITC (Beckman Coulter). Two subsets of dendritic cells, CD11c+CD8α− and CD11c+CD8α+ populations, were analyzed further. […] To determine if administration of glycolipid induced maturation of the two subsets of dendritic cells, the cells were stained with anti-CD40 Biotin/Stepta APC (BD Bioscience), anti-CD80 Biotin (BD Pharmingen)/Stepta APC (BD Bioscience) and anti-CD86 Biotin (BD Pharmingen)/Stepta APC (BD Bioscience) antibodies and analyzed by flow cytometry. FIGS. 5A and 5B show the percentage of CD40 positive cells in both the CD11c+CD8α− and CD11c+CD8α+ cells, respectively. […] Horizontal lines represent the averages.

For test [5], the system named is Ova-specific target cells. Nature of the test: In vivo specific cytotoxic T cell (CD8+) response: specific lysis of CFSE-labeled SIINFEKL-loaded target cells in immunized mice. More on the design: species or system C57/B1/6J CD45.2 female mice. To be noted: for specific lysis of Ova-specific target cells in the blood, IM versus IV: 400 μg Ova and 1 μg adjuvant in 50 μl PBS, IM or IV, readout day 11 (FIG. 13); for specific lysis of Ova-specific target cells in the blood, intramuscular immunization: IM hind left leg, 400 μg Ova with 1 μg to 10 pg adjuvant, readout day 11 (FIG. 11, FIG. 12); for specific lysis of Ova-specific target cells in the blood, intravenous immunization: 50 μg Ova with varying doses of adjuvant, readout day 11 (FIG. 8, FIG. 9).

Test [6] relates to tetanus toxoid. Nature of the test: Antibody (IgG) response to tetanus toxoid immunization, tetanus toxoid specific ELISA. Format: in vivo. To be noted: mice, IM day 0 and day 15, 10 μg TT with 1 μg PBS57 versus TT alone, blood day 0, 15 and 30 (FIG. 14). The procedure: IgG titers were determined by standard methods from blood samples drawn on day 0, 15 and 30. The antibody titer was determined by tetanus toxoid specific ELISA.

Test [7] has as its system Ova-specific CD8+ T cells. The experiment in a line: H2Kb-SIINFEKL pentamer staining of CD8+ T cells in blood after immunization with Ova. It is filed as in vivo, C57/B1/6J CD45.2 female mice. The procedure: A mouse model was used to test the in vivo specific T cell response (CD8+) elicited by PBS57 in combination with antigen. C57/B1/6J CD45.2 female mice were immunized intramuscularly on day 0 and 14 with antigen (Ovalbumin, Ova, grade VII, Sigma, St. Louis, Mo.) with or without adjuvant, adjuvant alone, or carrier alone (control) in a total of 100 μl PBS carrier. Test adjuvant was 1 μg PBS57 with or without 50 μg Ova. Each group included at least three mice. Blood was collected from each mouse at day 21 and isolated cells were subjected to pentamer staining with H2K^b-SIINFEKL pentamers after blocking the Fc receptor. FACS analysis was performed including only CD8+ cells in the analysis (CD19+ cells were excluded from the analysis to exclude any B cells). […] The results are reported as mean+/−standard deviation of H2K^b-SIINFEKL specific CD8+ T cells in the blood.
A mouse model was used to test the in vivo specific T cell response (CD8+) elicited by PBS57 in combination with antigen as compared to that of αGalCer. C57/B1/6J CD45.2 female mice were immunized subcutaneously on day 0 and 14 with antigen (Ovalbumin, Ova, grade VII, Sigma, St. Louis, Mo.) with or without adjuvant, adjuvant alone, or carrier alone (control) in a total of 100 μl PBS carrier. Test adjuvant was 1 μg PBS57 or αGalCer with or without 50 μg Ova. Each group included at least three mice. […]

Test [8] relates to INF-γ and IL-4. To be noted: in vitro; cited from earlier work.

Structures are written as SMILES. “Also recorded” adds a separate entry of the source.

Turning to `CCCCCCCCC=CCCCCCCCCCCCCCC(=O)N[C@@H](OC1OC(CNC(C)=O)C(O)C(O)C1O)C(O)[C@H](O)CCCCCCCCCCCCCC` (stereo partly drawn) [PBS57], in test [1], the “percentage of NKT cells in the CD3+ population” value is “expansion of NKT cells”. In addition, the “increase in NKT cells over cells treated with αGalCer” value in test [1] (separate experiment, PBL of two healthy donors, 1, 10 and 100 ng/ml, day 7 (FIG. 2)) is reported as “at least a two fold increase”. In addition, the “increase in NKT cells (number on day 7 divided by number on day 0)” value in test [2] is “substantial increase in NKT cells”. For the same molecule, in test [3], the “percentage of TCRαβ cells in the spleen” value is recorded as “increase in percentage of TCRαβ cells” and the “percentage of NKT cells within the TCRαβ population in the spleen” value is reported as “decrease in percentage of NKT cells”. Also, in test [4], the “decrease of both subsets of DCs (CD11c+CD8α− and CD11c+CD8α+) compared to the control” value is 50%; the “percentage of CD40+, CD80+ and CD86+ expressing cells in both the CD11c+CD8α− and CD11c+CD8α+ populations” value is recorded as “substantially increased”. In test [5] (1 μg adjuvant with 50 μg Ova on day 0, target cells day 10, readout day 11 (FIG. 7)), the “specific lysis of Ova-specific target cells in the spleen” value was “produced cytotoxic lysis of Ova-specific target cells”. In test [5], the “specific lysis of Ova-specific target cells in the blood, IM versus IV” value is “caused a cytotoxic response regardless of the route of administration”; the “specific lysis of Ova-specific target cells in the blood, intramuscular immunization” value is “can elicit a specific cytotoxic response when injected both intravenously and intramuscularly”. Moreover, the “specific lysis of Ova-specific target cells, varying Ova dose” value in test [5] (IV, 1 μg PBS57 with 50 μg to 10 pg Ova, readout day 11 (FIG. 10)) is “dependent on antigen concentration”. Besides, in test [5] (IV), the “specific lysis of Ova-specific target cells in the blood, intravenous immunization” value is “dose-dependent specific cytotoxic effect”. Also, the “antibody (IgG) titer to tetanus toxoid” value in test [6] is recorded as “enhanced the antibody response to TT”. Moreover, the “H2Kb-SIINFEKL specific CD8+ T cells in the blood, intramuscular immunization” value in test [7] (IM day 0 and 14, 1 μg PBS57 with 50 μg Ova, compared to Ova alone, blood day 21 (FIG. 15)) was “increase in Ova-specific CD8+ T cells”. For the same molecule, the “H2Kb-SIINFEKL specific CD8+ T cells in the blood, subcutaneous immunization” value in test [7] (SC day 0 and 14, 1 μg PBS57 with 50 μg Ova, compared to Ova alone or αGalCer and Ova, blood day 21 (FIG. 16)) was “increase in Ova-specific CD8+ T cells”. Besides, the “release of INF-γ and IL-4” value in test [8] is “induce the release of the INF-γ and IL-4”.

Take `CCCCCCCCCCCCCCCCCCCCCCCCCC(=O)N[C@@H](COC1OC(CO)C(O)C(O)C1O)[C@H](O)[C@H](O)CCCCCCCCCCCCCC` (stereo partly drawn) [αGalCer, α-galactosyceramide, reference compound]: the “percentage of NKT cells in the CD3+ population” value in test [1] is listed as “expansion of NKT cells”. In addition, in test [3], the “percentage of TCRαβ cells in the spleen” value is “increase in percentage of TCRαβ cells” and the “percentage of NKT cells within the TCRαβ population in the spleen” value was “decrease in percentage of NKT cells”. For the same molecule, in test [4], the “decrease of both subsets of DCs (CD11c+CD8α− and CD11c+CD8α+) compared to the control” value amounted to 50%; the “percentage of CD40+, CD80+ and CD86+ expressing cells in both the CD11c+CD8α− and CD11c+CD8α+ populations” value is reported as “substantially increased”. In test [5], the “specific lysis of Ova-specific target cells in the blood, IM versus IV” value is “did not induce a cytotoxic response when injected intramuscularly” and the “specific lysis of Ova-specific target cells in the blood, intramuscular immunization” value is “not able to generate a specific cytotoxic T cell response; also recorded: can only elicit a cytotoxic response when injected intravenously”. Also, the “specific lysis of Ova-specific target cells in the blood, intravenous immunization” value in test [5] (IV) is recorded as “dose dependent specific cytotoxic effect; also recorded: elicited a cytotoxic response when injected intravenously at 1 μg-10 ng”.

Source of the values: patent US8916164B2, “Methods of enhancing adjuvaticity of vaccine compositions” (ABIVAX, priority 2007, dated 2014).
